{
  "source": "patent US12390487B2",
  "about": "“Antiseptic skin prep composition” (Solventum Intellectual Properties Company, priority 2019, dated 2025)",
  "experiment": "Solubility of dye in alcohol systems",
  "format": "physicochemical",
  "source_text": "It was observed that, Ponceau 4R Dye precipitated on the second day. The others (Brilliant Blue, D&C Green, Carmoisine) were stable over 30 days at room temperature with no precipitation observed. PVPK 120 postpones the precipitation of anionic dyes with CHG to various degrees. It was observed that the azo dye structure with 3 sulphonate groups precipitated out of solution quicker.",
  "data": [
    {"smiles": "O=C1OC2(c3ccccc31)c1cc(I)c(O)c(I)c1Oc1c2cc(I)c(O)c1I", "note": "[Erythrosine]", "values": [
      {"measurement": "Solubility in alcohol systems", "result": "good solubility"}
    ]}
  ]
}
